Measurements from article PMC8954540, “A New Class of PSMA-617-Based Hybrid Molecules for Preoperative Imaging and Intraoperative Fluorescence Navigation of Prostate Cancer” (Pharmaceuticals, 2022).
Blank lines part the entries; values can stand above or below the compound they belong to.

How the values were obtained:
[1] = system: LNCaP cells; assay: Confocal fluorescence imaging, PSMA-positive cells; assay type: cell-based; details: 50 nmol/L, 60 min of internalization
Protocol: (§1) For confocal microscopy sample preparation, 10^5 cells/well were seeded in poly-L-lysine (Sigma-Aldrich, Darmstadt, Germany) coated 4-well chambered coverslips (Nunc Lab-Tek II chambered coverglasses, Thermo Fisher Scientific, Waltham, MA, USA, live cell imaging) or on poly-L-lysine (Sigma-Aldrich, Darmstadt, Germany) coated #1 coverslips (15 mm diameter, fixed cell imaging) and kept for 48 h at 37 °C in humidified air with 5% CO2. Subsequently, cells were incubated with 50 nmol/L PSMA-927in RPMI for 5/15/30/45/60 min at 37 °C in humidified air with 5% CO2. […]
(§2) All confocal data were acquired with a custom-built STED system similar to the one published by Gorlitz et al.. […] Laser powers were measured in front of the microscope body. […]
(§3) The integrated fluorescence intensity was extracted with a custom-written ImageJ routine. […] Multiplying this mask with the corresponding raw image generates an output image with which the integrated fluorescence intensity can be evaluated exclusively in the signal-carrying parts of the raw image without summing up background.

[2] = Spectral properties (absorption and emission); assay type: physicochemical; details: 10 μM in PBS (pH 7.4)
Protocol: Absorbance was measured with a Varian Cary 500 UV-VIS NIR Spectrophotometer (Agilent, Santa Clara, CA, USA) equipped with the software Cary 500 (EPROM Version 8.01, Agilent, Santa Clara, CA, USA) in the 200–1200 nm interval. Fluorescence emission was measured with a Varian Cary Eclipse Fluorescence-Spectrophotometer (Agilent, Santa Clara, CA, USA) equipped with the software Cary Eclipse (Version 1.1, Agilent, Santa Clara, CA, USA) with excitation at 710 nm in the 720–900 nm interval. PSMA-927 was diluted to 10 μM in PBS (pH 7.4) and measured in standard 1 cm quartz cuvettes.

[3] = system: PC-3 cells; assay: Confocal fluorescence imaging, PSMA-negative cells; assay type: cell-based; details: PSMA-negative PC-3 cells, 50 nmol/L
Protocol: as §1, §2, §3

[4] = Lipophilicity, logD at pH 7.4 in n-octanol/PBS; assay type: physicochemical; details: 68Ga-labeled ligand
Protocol: The synthesis was performed according to previously published protocols. Details on synthesis and analytical data of the compounds are provided in the Supplementary Materials (Compound Synthesis and Analytical Characterization). […] Using 30% NaOH (Sigma-Aldrich, Darmstadt, Germany) and 10% NaOH (Sigma-Aldrich, Darmstadt, Germany), the pH was adjusted to 3.8. The reaction mixture was incubated at 98 °C for 5–10 min. The radiochemical yield was analyzed by reversed-phase high-performance liquid chromatography (RP-HPLC) or reversed-phase thin-layer chromatography (RP-TLC, 60 RP-18 F254S, Sigma-Aldrich, Darmstadt, Germany) with 0.5 M ammonium acetate/methanol (1:1) as the mobile phase. The lipophilicity of the ^68Ga-labeled compounds was determined using the 2-phase system n-octanol and PBS.

[5] = system: LNCaP cells; assay: Cytotoxicity study by holographic time-lapse imaging; assay type: cell-based; details: 100 nmol/L, constant exposure for 48 h
Protocol: Potential cytotoxicity of PSMA-927 was assessed by analyzing the frequency of LNCaP cell division and the length of the LNCaP cell cycle via holographic time-lapse imaging. Cells were seeded in lumox® 24-well plates (Sarstedt, Nümbrecht, Germany) 48 h prior to the experiment and kept at 37 °C and 5% CO2. Imaging was performed with a HoloMonitor® M4 cytometer (PHI AB, Lund, Schweden) for a total period of 48 h at 37 °C and 5% CO2 with 15 min between image captures. Cell proliferation was followed in absence and in presence of 100 nmol/L PSMA-927. Data analysis was performed with the AppSuite software including cell segmentation, tracking of cells, identification of dividing cells, confluency measurement, and cell counting.

[6] = molecular target: T1, PSMA (Homo sapiens, UniProt Q04609); assay: Competitive cell binding assay (radioligand 68Ga-PSMA-10); details: free ligands, mean ± SD, n = 3
T1 construct: LNCaP cells (CRL-1740; ATCC; PSMA-positive); host or cells: LNCaP cells
Protocol: (§4) LNCaP cells (CRL-1740; ATCC; PSMA-positive) and PC-3 cells (CRL-1435; ATCC; PSMA-negative) were cultured in RPMI medium (Thermo Fisher Scientific, Waltham, MA, USA) supplemented with 10% fetal calf serum and 2 mmol/L L-glutamine (all from (Thermo Fisher Scientific, Waltham, MA, USA) ) at 37 °C in humidified air with 5% CO2. Cells were harvested using trypsin-ethylenediaminetetraacetic acid (trypsin-EDTA; 0.25% trypsin, 0.02% EDTA, Invitrogen, Waltham, MA, USA). Cell line authentication was regularly performed. Binding affinities and internalization profiles of the ^68Ga-labeled compounds were determined in competitive cell binding assays and internalization experiments as described previously.

[7] = system: LNCaP cells; assay: Specific cell surface binding and internalization of 68Ga-labeled compounds; assay type: cell-based
Protocol: as §4

[8] = system: PC-3 tumor xenografts; assay: Small-animal PET/MRI proof-of-concept, PSMA-negative xenograft; assay type: in vivo, mice; details: 0.5 nmol, PSMA-negative PC-3 xenograft, n = 1
Protocol: (§5) For the proof-of-concept imaging study, 0.5 nmol of the ^68Ga-labeled compound in 0.9% NaCl (pH 7) were injected into the tail vein under anesthesia (2% isoflurane, n = 1). PET/MRI was performed with a 3T PET/MRI scanner (Bruker, Ettlingen, Germany). For MR imaging, a nontriggered localizer followed by a T1-weighted 3D scan was applied. For PET imaging, a dynamic scan for 60 min and a static scan (20 min) at 2 h p.i. was recorded. Image reconstruction was done with ParaVision software (dynamic scan: MLEM 0.5 mm algorithm, 12 iterations; static scan: OSEM 0.25 mm algorithm, 1 iteration), and data analysis was conducted in PMOD (version 3.7) with data converted to SUV images. After PET/MRI, the mice were sacrificed, and optical imaging of the subcutaneous tumor and organs of interest was performed with the Odyssey CLx system (LI-COR Biosciences, excitation wavelength 800 nm).

[9] = system: LNCaP xenograft mouse model; assay: Small-animal PET/MRI proof-of-concept, PSMA-positive xenograft; assay type: in vivo, mice
Protocol: (§6) Biodistribution and proof-of-concept imaging studies were performed in an experimental tumor xenograft model. A total of 5 × 10^6 cells of LNCaP (in 50% Matrigel; Becton Dickinson, Franklin Lakes, NJ, USA) were subcutaneously inoculated into the flank of 7- to 8-week-old male BALB/c nu/nu mice (Charles River, Wilmington, MA, USA/Janvier Labs, Le Genest-Saint-Isle, France).
as §5

[10] = system: LNCaP-tumor bearing BALB/c nu/nu mice; assay: Biodistribution (organ distribution) in tumor xenograft model; assay type: in vivo; details: 0.06 nmol; for Organ distribution Blood / Organ distribution Brain / Organ distribution Heart / Organ distribution Intestine / Organ distribution Kidney / Organ distribution Liver / Organ distribution Lung / Organ distribution Muscle / Organ distribution Spleen / Organ distribution Tumor: n=3
Protocol: as §6
For biodistribution studies, 60 pmol of ^68Ga-labeled PSMA-927 were injected into the tail vein (1–3 MBq, n = 3). The animals were sacrificed at 1 and at 2 h p.i., and organs of interest were dissected, blotted dry, and weighed. Finally, the radioactivity was measured using a gamma counter and calculated as % ID/g.

[11] = system: human serum albumin; set-up: method as in PMID 942422, PMID 11325049; details: cited from earlier work
[12] = 68Ga-labeled compounds, blockage with 500 µmol/L 2-PMPA, mean ± SD, n = 3

T1 sequence (Q04609 whole entry): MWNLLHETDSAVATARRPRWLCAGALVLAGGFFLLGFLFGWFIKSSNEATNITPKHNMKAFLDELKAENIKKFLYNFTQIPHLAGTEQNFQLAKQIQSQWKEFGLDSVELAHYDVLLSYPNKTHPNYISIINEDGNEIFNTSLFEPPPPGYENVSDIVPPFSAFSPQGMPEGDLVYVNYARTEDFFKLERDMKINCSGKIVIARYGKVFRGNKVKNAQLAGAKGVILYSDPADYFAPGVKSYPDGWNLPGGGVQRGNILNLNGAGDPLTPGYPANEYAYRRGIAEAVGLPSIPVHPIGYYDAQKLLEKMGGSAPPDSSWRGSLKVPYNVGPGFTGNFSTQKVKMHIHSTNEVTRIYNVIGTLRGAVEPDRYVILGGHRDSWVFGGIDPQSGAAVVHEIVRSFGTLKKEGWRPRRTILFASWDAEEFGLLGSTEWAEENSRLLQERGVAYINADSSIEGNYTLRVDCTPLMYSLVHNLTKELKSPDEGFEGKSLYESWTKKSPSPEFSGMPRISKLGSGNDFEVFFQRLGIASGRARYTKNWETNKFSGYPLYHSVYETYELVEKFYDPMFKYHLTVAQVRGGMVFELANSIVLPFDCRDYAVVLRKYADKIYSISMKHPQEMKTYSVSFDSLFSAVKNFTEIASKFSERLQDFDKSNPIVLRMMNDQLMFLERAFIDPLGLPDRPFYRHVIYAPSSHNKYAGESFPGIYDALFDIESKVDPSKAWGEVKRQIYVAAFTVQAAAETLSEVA

absorption maximum [2]: 778 nm | emission maximum ([2]; excitation at 710 nm): 796 nm | Lipophilicity logDpH 7.4 n-octanol/PBS [4]: -2.96 ± 0.06 | Ki ([6]; Ki=IC50/(1+cradioligand/Kd)): 13.2 ± 5.25 nM | IC50 ([6]; radioligand 68Ga-PSMA-10, 0.75 nmol/L): 15.9 ± 5.46 nM
Structure (SMILES): CC1(C)C(=CC=C2CCCC(C=CC3=[N+](CCCCCC(=O)NCCCCC(NC(=O)CN4CCN(CC(=O)O)CCN(CC(=O)O)CCN(CC(=O)O)CC4)C(=O)NCC4CCC(C(=O)NC(Cc5ccc6ccccc6c5)C(=O)NCCCCC(NC(=O)NC(CCC(=O)O)C(=O)O)C(=O)O)CC4)c4ccc(S(=O)(=O)O)cc4C3(C)C)=C2Oc2ccc(S(=O)(=O)O)cc2)N(CCCCS(=O)(=O)O)c2ccc(S(=O)(=O)O)cc21 (stereo not drawn) [PSMA-927, Glu-urea-Lys-2-Nal-Chx-Lys(IRDye800CW)-DOTA]
integrated fluorescence intensity fixed ([1]; PFA-fixed cells): 3021 ± 863 counts | integrated fluorescence intensity live ([1]; live cells): 11,618 ± 5412 counts | fluorescence signal increase [3]: no significant fluorescence signal increase | cytotoxicity (cell count, confluency, frequency of cell division, cell cycle length) [5]: did not reveal any evidence of cytotoxicity | Specifically Cell Surface Bound [7, 12]: 25.51 ± 9.73 %AR/10^5 Cells | Specifically Internalized [7, 12]: 27.64 ± 12.80 %AR/10^5 Cells

tumor uptake in PET/MRI [8]: lack of measurable uptake | tumor uptake in PET/MRI ([9]; 0.5 nmol, PSMA-positive LNCaP xenograft, n = 1): strong and specific tumor uptake | Tumor-to-Organ ratio Blood ([10]; 1 h p.i.): 3.69 ± 0.60 | Tumor-to-Organ ratio Brain ([10]; 1 h p.i.): 57.84 ± 9.25 | Tumor-to-Organ ratio Heart ([10]; 1 h p.i.): 8.57 ± 2.07 | Tumor-to-Organ ratio Intestine ([10]; 1 h p.i.): 10.37 ± 2.47 | Tumor-to-Organ ratio Kidney ([10]; 1 h p.i.): 0.06 ± 0.01 | Tumor-to-Organ ratio Liver ([10]; 1 h p.i.): 4.51 ± 0.84 | Tumor-to-Organ ratio Lung ([10]; 1 h p.i.): 2.84 ± 0.37 | Tumor-to-Organ ratio Muscle ([10]; 1 h p.i.): 12.23 ± 1.39 | Tumor-to-Organ ratio Spleen ([10]; 1 h p.i.): 1.76 ± 0.71 | Organ distribution Blood ([10]; 1 h p.i.): 1.14 ± 0.14 %ID/g | Organ distribution Brain ([10]; 1 h p.i.): 0.07 ± 0.01 %ID/g | Organ distribution Heart ([10]; 1 h p.i.): 0.51 ± 0.10 %ID/g | Organ distribution Intestine ([10]; 1 h p.i.): 0.43 ± 0.12 %ID/g | Organ distribution Kidney ([10]; 1 h p.i.): 65.64 ± 6.60 %ID/g | Organ distribution Liver ([10]; 1 h p.i.): 0.95 ± 0.15 %ID/g | Organ distribution Lung ([10]; 1 h p.i.): 1.47 ± 0.14 %ID/g | Organ distribution Muscle ([10]; 1 h p.i.): 0.34 ± 0.03 %ID/g | Organ distribution Spleen ([10]; 1 h p.i.): 2.82 ± 1.19 %ID/g | Organ distribution Tumor ([10]; 1 h p.i.): 4.13 ± 0.15 %ID/g | Tumor-to-Organ ratio Blood ([10]; 2 h p.i.): 7.58 ± 1.65 | Tumor-to-Organ ratio Brain ([10]; 2 h p.i.): 29.37 ± 13.17 | Tumor-to-Organ ratio Heart ([10]; 2 h p.i.): 14.79 ± 4.40 | Tumor-to-Organ ratio Intestine ([10]; 2 h p.i.): 11.92 ± 5.17 | Tumor-to-Organ ratio Kidney ([10]; 2 h p.i.): 0.13 ± 0.06 | Tumor-to-Organ ratio Liver ([10]; 2 h p.i.): 7.80 ± 3.09 | Tumor-to-Organ ratio Lung ([10]; 2 h p.i.): 6.11 ± 2.36 | Tumor-to-Organ ratio Muscle ([10]; 2 h p.i.): 11.55 ± 5.94 | Tumor-to-Organ ratio Spleen ([10]; 2 h p.i.): 3.60 ± 1.86 | Organ distribution Blood ([10]; 2 h p.i.): 0.82 ± 0.23 %ID/g | Organ distribution Brain ([10]; 2 h p.i.): 0.24 ± 0.11 %ID/g | Organ distribution Heart ([10]; 2 h p.i.): 0.43 ± 0.14 %ID/g | Organ distribution Intestine ([10]; 2 h p.i.): 0.59 ± 0.26 %ID/g | Organ distribution Kidney ([10]; 2 h p.i.): 57.47 ± 23.83 %ID/g | Organ distribution Liver ([10]; 2 h p.i.): 0.87 ± 0.34 %ID/g | Organ distribution Lung ([10]; 2 h p.i.): 1.11 ± 0.42 %ID/g | Organ distribution Muscle ([10]; 2 h p.i.): 0.66 ± 0.30 %ID/g | Organ distribution Spleen ([10]; 2 h p.i.): 2.08 ± 0.90 %ID/g | Organ distribution Tumor ([10]; 2 h p.i.): 5.85 ± 0.91 %ID/g
Structure (SMILES): CC1(C)C(=CC=C2CCCC(C=CC3=[N+](CCCCCC(=O)NCCCCC(NC(=O)CN4CCN(CC(=O)[O-])CCN(CC(=O)[O-])CCN(CC(=O)[O-])CC4)C(=O)NCC4CCC(C(=O)NC(Cc5ccc6ccccc6c5)C(=O)NCCCCC(NC(=O)NC(CCC(=O)O)C(=O)O)C(=O)O)CC4)c4ccc(S(=O)(=O)[O-])cc4C3(C)C)=C2Oc2ccc(S(=O)(=O)O)cc2)N(CCCCS(=O)(=O)O)c2ccc(S(=O)(=O)O)cc21.[68Ga+3] (stereo not drawn) [[^68Ga]Ga-PSMA-927, 68Ga-Glu-urea-Lys-2-Nal-Chx-Lys(IRDye800CW)-DOTA]
pharmacokinetic profile (clearance) ([9]; time activity curves, PET/MRI): rapid clearance from non-malignant tissue (heart, liver, muscle) via the renal pathway | specific cell surface binding [7]: 25.51 ± 9.73 %ID/10^5 LNCaP cells | specific internalization rate [7]: 27.64 ± 12.80 %ID/10^5 LNCaP cells

Structure (SMILES): CC1(C)C(/C=C/C=C/C=C/C=C2\N(CCCCS(=O)(=O)O)c3ccc4ccccc4c3C2(C)C)=[N+](CCCCS(=O)(=O)[O-])c2ccc3ccccc3c21 [indocyanine green]
human serum albumin binding [11]: prone to human serum albumin binding
